The text below walks through data of patent publication US20250179073A1, “TRICYCLIC HETEROCYCLE COMPOUNDS AS IAP ANTAGONISTS” (Ascentage Pharma (Suzhou) Co., Ltd., priority 2022, published 2025).

This test deals with MDA-MB-231 cells. Description: Cell proliferation assay (CellTiter-Glo), MDA-MB-231. The class given is cell-based. The settings on record: Homo sapiens, MDA-MB-231, 72 h, 72 h treatment, Celltiter-Glo luminescence. Here is the method: Example 238: Cell Proliferation Assay
MDA-MB-231 and EVSA-T cells (10000 cells/well) were plated onto 96-well plates (Corning, Cat #3917) in 95 μL of medium (RPMI-1640 containing 10% FBS and MEM containing 10% FBS, respectively). Compounds with various concentrations ([…]) were added to the wells. After treatment for 72 h, 30 μL of Celltiter-Glo reagent (Promega, Cat #G7573) was added and incubated at room temperature for 15 min, then the luminescent signal was determined using a microplate reader (Biotek, SynergyH1). The inhibitor dose-response curves were analyzed using normalized IC50 regression curve fitting with control based normalization.
For orientation: Cellular ATP, detected with luciferase, serves as a proxy for viable cell number.

As to `C[C@@H]1CN(CC(=O)N2CC(C)(C)c3c2cc(Cc2ccc(F)cc2)c2nc(CS(C)(=O)=O)nn32)[C@@H](CN2CCOC[C@H]2C)CN1` [Compound 141, 1-(4-(4-fluorobenzyl)-8,8-dimethyl-2-((methylsulfonyl)methyl)-7,8-dihydro-6H-pyrrolo[2,3-e][1,2,4]triazolo[1,5-a]pyridin-6-yl)-2-((2R,5R)-5-methyl-2-(((R)-3-methylmorpholino)methyl)piperazin-1-yl)ethan-1-one], the IC50 (usually the point on the concentration scale where inhibition reaches its midpoint) is 310 nM. `C[C@@H]1CN(CC(=O)N2CC(C)(C)c3c2cc(Cc2ccc(F)cc2)c2nnc(C(N)=O)n32)[C@@H](CN2CCOC[C@H]2C)CN1` [Compound 145, 4-(4-fluorobenzyl)-8,8-dimethyl-6-(2-((2R,5R)-5-methyl-2-(((R)-3-methylmorpholino)methyl)piperazin-1-yl)acetyl)-7,8-dihydro-6H-pyrrolo[2,3-e][1,2,4]triazolo[4,3-a]pyridine-1-carboxamide]: the half-inhibitory concentration (IC50) is 450 nM.

For the compound `C[C@@H]1CN(CC(=O)N2CC(C)(C)c3c2cc(Cc2ccc(F)cc2)c2nc(C(F)(F)F)cn32)[C@@H](CN2CCOCC2(C)C)CN1` [Compound 146, 2-((2R,5R)-2-((3,3-dimethylmorpholino)methyl)-5-methylpiperazin-1-yl)-1-(4-(4-fluorobenzyl)-8,8-dimethyl-2-(trifluoromethyl)-7,8-dihydro-6H-imidazo[1,2-a]pyrrolo[2,3-e]pyridin-6-yl)ethan-1-one], the IC50 stood at 270 nM. For `C[C@@H]1CN(CC(=O)N2CC(C)(C)c3c2cc(Cc2ccc(F)cc2)c2cc(C(F)(F)F)nn32)[C@@H](CN2CCOC[C@H]2C)CN1` [Compound 150, 1-(4-(4-fluorobenzyl)-8,8-dimethyl-2-(trifluoromethyl)-7,8-dihydro-6H-pyrazolo[1,5-a]pyrrolo[2,3-e]pyridin-6-yl)-2-((2R,5R)-5-methyl-2-(((R)-3-methylmorpholino)methyl)piperazin-1-yl)ethan-1-one], the half-maximal inhibitory concentration (IC50) was found to be 490 nM. For the compound `C[C@@H]1CN(CC(=O)N2CC(C)(C)c3c2cc(Cn2ccc(F)cc2=O)c2ncnn32)[C@@H](CN2CCOC[C@H]2C)CN1` [Compound 151, 1-((8,8-dimethyl-6-(2-((2R,5R)-5-methyl-2-(((R)-3-methylmorpholino)methyl)piperazin-1-yl)acetyl)-7,8-dihydro-6H-pyrrolo[2,3-e][1,2,4]triazolo[1,5-a]pyridin-4-yl)methyl)-4-fluoropyridin-2(1H)-one], the IC50 came out at 3800 nM.

Regarding `C[C@@H]1CN(CC(=O)N2CC(C)(C)c3c2cc(Cc2ccc(F)cc2F)c2nncn32)[C@@H](CN2CCOC[C@H]2C)CN1` [Compound 155, 1-(4-(2,4-difluorobenzyl)-8,8-dimethyl-7,8-dihydro-6H-pyrrolo[2,3-e][1,2,4]triazolo[4,3-a]pyridin-6-yl)-2-((2R,5R)-5-methyl-2-(((R)-3-methylmorpholino)methyl)piperazin-1-yl)ethan-1-one], the IC50 amounted to 720 nM.

As to `Cc1nnc2c(Cc3ccc(F)cc3F)cc3c(n12)C(C)(C)CN3C(=O)CN1C[C@@H](C)NC[C@@H]1CN1CCOC[C@H]1C` [Compound 156, 1-(4-(2,4-difluorobenzyl)-1,8,8-trimethyl-7,8-dihydro-6H-pyrrolo[2,3-e][1,2,4]triazolo[4,3-a]pyridin-6-yl)-2-((2R,5R)-5-methyl-2-(((R)-3-methylmorpholino)methyl)piperazin-1-yl)ethan-1-one], the concentration for half-maximal inhibition (IC50) came out at 1330 nM. Next, `C[C@@H]1CN(CC(=O)N2CC(C)(C)c3c2cc(Cc2ccc(F)cc2)c2nnc(C(F)F)n32)[C@@H](CN2CCOC[C@H]2C)CN1` [Compound 157, 1-(1-(difluoromethyl)-4-(4-fluorobenzyl)-8,8-dimethyl-7,8-dihydro-6H-pyrrolo[2,3-e][1,2,4]triazolo[4,3-a]pyridin-6-yl)-2-((2R,5R)-5-methyl-2-(((R)-3-methylmorpholino)methyl)piperazin-1-yl)ethan-1-one]: 200 nM; `Cc1nc(C)c(Cc2cc3c(n4ncnc24)C(C)(C)CN3C(=O)CN2C[C@@H](C)NC[C@@H]2CN2CCOC[C@H]2C)s1` [Compound 158, 1-(4-((2,4-dimethylthiazol-5-yl)methyl)-8,8-dimethyl-7,8-dihydro-6H-pyrrolo[2,3-e][1,2,4]triazolo[1,5-a]pyridin-6-yl)-2-((2R,5R)-5-methyl-2-(((R)-3-methylmorpholino)methyl)piperazin-1-yl)ethan-1-one]: 720 nM; `C[C@@H]1CN(CC(=O)N2CC(C)(C)c3c2cc(Cc2ccc(F)cc2)c2nc(C(F)(F)F)cn32)[C@@H](CN2CCOC[C@H]2CO)CN1` [Compound 160, 1-(4-(4-fluorobenzyl)-8,8-dimethyl-2-(trifluoromethyl)-7,8-dihydro-6H-imidazo[1,2-a]pyrrolo[2,3-e]pyridin-6-yl)-2-((2R,5R)-2-((3-(hydroxymethyl)morpholino)methyl)-5-methylpiperazin-1-yl)ethan-1-one]: 330 nM. The result for `C[C@@H]1CN(CC(=O)N2CC(C)(C)c3c2cc(Cc2c(F)cc(F)cc2F)c2nncn32)[C@@H](CN2CCOC[C@H]2C)CN1` [Compound 164, 1-(8,8-dimethyl-4-(2,4,6-trifluorobenzyl)-7,8-dihydro-6H-pyrrolo[2,3-e][1,2,4]triazolo[4,3-a]pyridin-6-yl)-2-((2R,5R)-5-methyl-2-(((R)-3-methylmorpholino)methyl)piperazin-1-yl)ethan-1-one] reads 430 nM. Next, `C[C@@H]1CN(CC(=O)N2CC(C)(C)c3c2cc(C(F)(F)C24CC(C(F)(F)F)(C2)C4)c2ncnn32)[C@@H](CN2CCOC[C@H]2C)CN1` [Compound 166, 1-(4-(difluoro(3-(trifluoromethyl)bicyclo[1.1.1]pentan-1-yl)methyl)-8,8-dimethyl-7,8-dihydro-6H-pyrrolo[2,3-e][1,2,4]triazolo[1,5-a]pyridin-6-yl)-2-((2R,5R)-5-methyl-2-(((R)-3-methylmorpholino)methyl)piperazin-1-yl)ethan-1-one]: 150 nM. Take `C[C@@H]1CN(CC(=O)N2CC(C)(C)c3c2cc(N2CCCc4cc(F)ccc42)c2ncnn32)[C@@H](CN2CCOC[C@H]2C)CN1` [Compound 168, 1-(4-(6-fluoro-3,4-dihydroquinolin-1(2H)-yl)-8,8-dimethyl-7,8-dihydro-6H-pyrrolo[2,3-e][1,2,4]triazolo[1,5-a]pyridin-6-yl)-2-((2R,5R)-5-methyl-2-(((R)-3-methylmorpholino)methyl)piperazin-1-yl)ethan-1-one]: the IC50 turned out to be 190 nM.

On to `C[C@@H]1CN(CC(=O)N2CC(C)(C)c3c2cc(N2CCOc4cc(F)ccc42)c2ncnn32)[C@@H](CN2CCOC[C@H]2C)CN1` [Compound 169, 1-(4-(7-fluoro-2,3-dihydro-4H-benzo[b][1,4]oxazin-4-yl)-8,8-dimethyl-7,8-dihydro-6H-pyrrolo[2,3-e][1,2,4]triazolo[1,5-a]pyridin-6-yl)-2-((2R,5R)-5-methyl-2-(((R)-3-methylmorpholino)methyl)piperazin-1-yl)ethan-1-one], for which the 50% inhibitory concentration (IC50) turned out to be 980 nM. On to `C[C@@H]1CN(CC(=O)N2CC(C)(C)c3c2cc(Cc2ccc(F)cc2)c2nc(N4CC(C)(O)C4)nn32)[C@@H](CN2CCOC[C@H]2C)CN1` [Compound 170, 1-(4-(4-fluorobenzyl)-2-(3-hydroxy-3-methylazetidin-1-yl)-8,8-dimethyl-7,8-dihydro-6H-pyrrolo[2,3-e][1,2,4]triazolo[1,5-a]pyridin-6-yl)-2-((2R,5R)-5-methyl-2-(((R)-3-methylmorpholino)methyl)piperazin-1-yl)ethan-1-one], for which the half-inhibitory concentration (IC50) was determined as 99 nM. Next, `CC(C)c1nc2c(Cc3ccc(F)cc3)cc3c(n2n1)C(C)(C)CN3C(=O)CN1C[C@@H](C)NC[C@@H]1CN1CCOC[C@H]1C` [Compound 171, 1-(4-(4-fluorobenzyl)-2-isopropyl-8,8-dimethyl-7,8-dihydro-6H-pyrrolo[2,3-e][1,2,4]triazolo[1,5-a]pyridin-6-yl)-2-((2R,5R)-5-methyl-2-(((R)-3-methylmorpholino)methyl)piperazin-1-yl)ethan-1-one]: 95 nM; `CCc1nnc2c(Cc3ccc(F)cc3)cc3c(n12)C(C)(C)CN3C(=O)CN1C[C@@H](C)NC[C@@H]1CN1CCOC[C@H]1C` [Compound 172, 1-(1-ethyl-4-(4-fluorobenzyl)-8,8-dimethyl-7,8-dihydro-6H-pyrrolo[2,3-e][1,2,4]triazolo[4,3-a]pyridin-6-yl)-2-((2R,5R)-5-methyl-2-(((R)-3-methylmorpholino)methyl)piperazin-1-yl)ethan-1-one]: 610 nM.

Take `C[C@@H]1CN(CC(=O)N2CC(C)(C)c3c2cc(Cc2ccc(F)cc2)c2nc(C(F)(F)F)cn32)[C@@H](CN2[C@H](C)COC[C@@H]2C)CN1` [Compound 173, 2-((2R,5R)-2-(((3S,5R)-3,5-dimethylmorpholino)methyl)-5-methylpiperazin-1-yl)-1-(4-(4-fluorobenzyl)-8,8-dimethyl-2-(trifluoromethyl)-7,8-dihydro-6H-imidazo[1,2-a]pyrrolo[2,3-e]pyridin-6-yl)ethan-1-one]: the IC50 was 530 nM. On to `CC(=O)N1CCN(C[C@H]2CN[C@H](C)CN2CC(=O)N2CC(C)(C)c3c2cc(Cc2ccc(F)cc2)c2nc(C(F)(F)F)cn32)[C@H](C)C1` [Compound 174, 2-((2R,5R)-2-(((R)-4-acetyl-2-methylpiperazin-1-yl)methy 1)-5-methylpiperazin-1-yl)-1-(4-(4-fluorobenzyl)-8,8-dimethyl-2-(trifluoromethyl)-7,8-dihydro-6H-imidazo[1,2-a]pyrrolo[2,3-e]pyridin-6-yl)ethan-1-one], for which the IC50 was 450 nM.
